According to the NIST ThermoML archive (doi:10.1016/j.jct.2012.10.011):

Columns and labels:
[1] = molar heat capacity at constant pressure; settings: 101.33 kPa, Vacuum adiabatic calorimetry
[2] = molar enthalpy of vaporization or sublimation; settings: 298.15 K; Liquid; Static calorimetry

CN=C=O [methyl isocyanate]
[1]
Settings | molar heat capacity at constant pressure [J/K/mol]
85.79 K, Crystal | 57.74
88.54 K, Crystal | 59.08
90 K, Crystal | 59.83
91.98 K, Crystal | 60.67
94.33 K, Crystal | 61.76
97.68 K, Crystal | 63.18
100 K, Crystal | 64.14
100.44 K, Crystal | 64.31
102.2 K, Crystal | 64.94
104.38 K, Crystal | 65.94
109.48 K, Crystal | 67.86
110 K, Crystal | 68.03
112.6 K, Crystal | 68.66
115.84 K, Crystal | 69.87
118.15 K, Crystal | 70.67
120 K, Crystal | 71.25
120.45 K, Crystal | 71.25
121.38 K, Crystal | 71.63
126.84 K, Crystal | 73.26
128.41 K, Crystal | 73.55
130 K, Crystal | 73.97
134.41 K, Crystal | 75.06
134.59 K, Crystal | 75.1
135.09 K, Crystal | 75.27
136.89 K, Crystal | 75.48
136.94 K, Crystal | 75.65
140 K, Crystal | 76.36
141.89 K, Crystal | 76.82
141.97 K, Crystal | 76.94
142.35 K, Crystal | 76.96
146.02 K, Crystal | 77.82
148.22 K, Crystal | 78.32
149.33 K, Crystal | 78.45
150 K, Crystal | 78.7
151.79 K, Crystal | 79.04
155.37 K, Crystal | 79.91
156.39 K, Crystal | 80
160 K, Crystal | 81
160.19 K, Crystal | 79.83
161.8 K, Crystal | 81.59
163.79 K, Crystal | 82.42
166.13 K, Crystal | 83.6
167.44 K, Crystal | 83.09
168.2 K, Crystal | 82.26
169.15 K, Crystal | 83.01
169.49 K, Crystal | 82.34
170 K, Crystal | 83.39
171.56 K, Crystal | 83.51
172.5 K, Crystal | 83.39
173.3 K, Crystal | 84.35
180 K, Liquid | 103.4
183.24 K, Liquid | 103.39
186.5 K, Liquid | 103.34
187.36 K, Liquid | 103.26
190 K, Liquid | 103.2
192.13 K, Liquid | 103.09
196.44 K, Liquid | 103.09
197.5 K, Liquid | 102.93
198.47 K, Liquid | 103
200 K, Liquid | 103
201 K, Liquid | 102.97
202.92 K, Liquid | 103
210 K, Liquid | 103
211.33 K, Liquid | 103
219.74 K, Liquid | 103
220 K, Liquid | 103
228.75 K, Liquid | 102.9
230 K, Liquid | 103.1
238.24 K, Liquid | 103.3
240 K, Liquid | 103.4
247.64 K, Liquid | 103.6
250 K, Liquid | 103.8
257.03 K, Liquid | 104.1
260 K, Liquid | 104.3
266.32 K, Liquid | 104.6
270 K, Liquid | 104.9
275.54 K, Liquid | 105.4
280 K, Liquid | 105.8
284.64 K, Liquid | 106.1
290 K, Liquid | 106.7
293.07 K, Liquid | 107
300 K, Liquid | 107.7
301.23 K, Liquid | 107.7

Settings | molar enthalpy [kcal/mol]
[2] | 6.871
